Measured values taken from patent publication US10568892B2, “Cycloartane tetracyclic triterpenoid compound, preparation method therefor and use thereof” (Hefei Cosource Pharmaceuticals Inc., priority 2016, dated 2020).
Marks after values point to notes of the source that are not given here.

Tests used:
[1] = test system: ventricular papillary muscle cell of guinea pig; assay: Action potential of the ventricular papillary muscle cell of guinea pig (electrophysiological recording); assay type: cell-based; details: n = 6, x ± SD
Description: Method: One guinea pig was taken to violently hit the back of the brain such that it fainted. The common carotid artery was cut off for bleeding to kill the guinea pig. The chest was incised to expose the heart, and the ventricle was cut open along the interventricular septum to expose the lumen of the left ventricle. The papillary muscles were quickly taken out and placed in a Kreb's solution saturated with O2 (mixed gas of 95% O2 and 5% CO2) at 0° C. After the microscopic dressing, the papillary muscle specimen was fixed with a stainless steel needle on the silicone rubber at the bottom of the perfusion bath, and perfused with the oxygen-saturated Kreb's solution. The relevant parameters for perfusion: the temperature was 37±0.5° C., and the flow rate was 4 mL/min.
Cellular action potentials were recorded using a conventional electrophysiological method. The glass electrode filled with 3M KCl saturated solution and having a tip resistance of 15-30 MΩ was fixed on the microelectrode manipulator MP-2. The glass electrode was gently inserted into the superficial layer of the prepared papillary muscle specimen using a microelectrode pusher. The electrode was adjusted to provide the predetermined bioelectrical stimulation with the triple-channel SEN-7203 electronic stimulator and SS-202 J isolator. The bioelectrical signal was amplified by the MEZ-8301 amplifier and then input to the computerized electrophysiological recording and analysis system Powerlab 4/25. Subsequently, the relevant parameters of the action potential for the ventricular papillary muscle were analyzed through the analysis system. The relevant parameters for electrical stimulation: 30 ms latency, 7 ms wavewidth, 1 Hz frequency, 52.1 my stimulation intensity.
In the compound screening test stage, after the ventricular papillary muscle specimen of the guinea pig was fixed, it was first perfused with a normal Kreb's solution for about 85 minutes for stabilization, and the relevant parameters of the cellular action potential before administration were recorded at about 80 min after the start of perfusion. The three-limb tube was used to convert the perfusates containing the title compounds. The title compounds were continuously perfused for about 25 min successively with low (0.0005 μM), medium (0.005 μM), and high (0.05 μM) concentrations, respectively. At about 20 min after the start of drug perfusions at different concentrations, the relevant parameters of the action potentials for the ventricular papillary muscle of guinea pig were observed and recorded, respectively. The normal Kreb's solution was used to perfuse and elute for about 25 min during the intervals between drug perfusions at different concentrations.
The experiment was divided into the following five groups with 6 animals in each group: a vehicle control group, a 369 low dose (0.0005 μM) group, a 369 medium dose (0.005 μM) group, a 369 high dose (0.05 μM) group, and an amiodarone (10 μM) positive control group. After the ventricular papillary muscle specimen of the guinea pig was fixed, it was first perfused with a normal Kreb's solution for about 85 minutes for stabilization, and the relevant parameters of the cellular action potential before administration were recorded at about 80 min after the start of perfusion. According to groups, the three-limb tube was configured to convert the perfusates containing the vehicle, positive control, or Compound 369 at the corresponding concentrations to continuously perfuse for about 25 min. At about 20 min after the start of the perfusions, the relevant parameters of the action potentials for the ventricular papillary muscle of guinea pig were observed and recorded.

guinea pig heart = assay: Atrial fibrillation induced by high- and low-potassium Langendorff perfusion of the guinea pig heart; details: 1 μM; within 60 min of low-potassium perfusion
From the text: Method: a total of 24 guinea pigs were divided into 4 groups according to body weight, and were sacrificed. The heart was quickly taken out, and the blood was squeezed in the ice bath perfusion solution. The heart was quickly transferred in the Langendorff perfusion system, and the perfusion at a constant rate was started by turning on the oxygen-saturated perfusate. One end of the electrode was placed at the cardiac apex, and one end was placed at the right atrium (the position of the atrial appendage). The electrocardiogram was recorded on the computer.
After the heart was stabilized, 10 min after the perfusion of high-K perfusate, blank vehicle, 0.1 μM, 1 μM, and 10 μM of Compound 369, 1 μM Amiodarone and Cyclovirobuxine D were simultaneously administrated and the high K perfusion was continued for 20 min, respectively. Then, the high K perfusion was removed to administrate the low-K perfusate, and the electrocardiogram was obtained at the same time to record whether there was atrial fibrillation within 60 min of low-potassium perfusion.

SD rats [2] = assay: Rat myocardial ischemia model with coronary artery ligation and reperfusion (arrhythmia incidence); assay type: in vivo; details: injection (sublingually) 5 min before ischemia
From the text: Method: SD rats were anesthetized with pentobarbital, and a cervical midline incision was made to separate and cut off the trachea such that it was connected to a respirator. The skin was cut along the midline of the left clavicle of the rat, and the chest was opened between the left third and fourth ribs to gently squeeze out the heart. The pericardium was opened, the needle was inserted at the left edge of the pulmonary artery cone and 2 mm at the lower edge of the left atrial appendage. The 6-0 non-invasive suture was threaded through the superficial myocardium, with the left anterior descending coronary artery (LAD) located thereon. After stabilization for 5 min, a double-layer plastic cannula was put on, and the cable tie was tighten to complete the myocardial ischemia induced by left coronary artery occlusion. The criterion for myocardial ischemia is the occurrence of myocardial infarction (St-segment ran up or T-wave was shown as high sharp wave) in the electrocardiogram and the presence of local cyanosis in the heart. After 5 min of myocardial ischemia, the inner cannula was withdrawn, that is, the wire knot was released for reperfusion, and the electrocardiogram of reperfusion in the rat was recorded.
The administration was performed at 5 min before the ischemia by coronary artery ligation, and the administration mode was injection administration (sublingually).

SD rats [3] = assay: Single-dose toxicity (MTD) in SD rats; assay type: in vivo; details: SD rat; single intravenous injection
From the text: (§1) The results of the experimental study on the toxicity of Compound 369 administrated through a single intravenous or intragastrical administration in SD rats and KM mice are shown in Table 9.

KM mice = assay: Single-dose toxicity (MTD) in KM mice; assay type: in vivo; details: KM mouse; single intragastrical administration
From the text: as §1

[4] = Pharmacokinetics in SD rats; assay type: in vivo, rat; details: SD rats, 2 mg/kg
Description: Method: twelve SD male rats were divided into four groups: 2 mg/kg of Compound 369 or cyclovirobuxine D was single dose through the intravenous injection or intragastrical administration, respectively. In the intravenous and intragastrical groups, blood samples (about 0.3 Ml) were collected from the posterior orbital venous plexus pro-dose and 0.25 h, 0.5 h, 1 h, 2 h, 4 h, 6 h, 8 h, and 12 h post-dose. The concentrations of Compound 369 and cyclovirobuxine D in plasma samples were determined by LC-MS/MS, and the pharmacokinetic parameters were calculated by DAS.3.0 software.

[5] = Pharmacokinetics in Beagle canines; assay type: in vivo; details: Beagle canines; 2 mg/kg; intragastrical administration
Description: Method: Six healthy male Beagle canines were selected and divided into two groups. 2 mg/kg of Compound 369 or cyclovirobuxine D was administrated intragastrically, respectively. Blood samples (about 2 mL) were collected from the limb venous of canines 0 h before administration as well as 0.25 h, 0.5 h, 1 h, 2 h, 4 h, 6 h, 8 h, and 12 h after administration. The concentrations of Compound 369 and cyclovirobuxine D in plasma samples were determined by LC-MS/MS, and the pharmacokinetic parameters were calculated by DAS.3.0 software.

[6] = test system: ventricular myocytes of guinea pig; details: literature, cited from earlier work

Q: With `CCCCc1oc2ccccc2c1C(=O)c1cc(I)c(OCCN(CC)CC)c(I)c1` [Amiodarone, reference compound] as the molecule, how does the percent change in action potential duration at 10 µM ([1]; Cavia porcellus, 20 min, 10 μM, read-out: APD, Change rate (%)) read?
A: The percent change in action potential duration at 10 µM was 56.8%.

Q: What about the “APD50, Change rate (%)” value ([1]; 10 μM) of the same molecule?
A: Its value is 93.34% ± 53.59%^b.

Q: And the “APD50, Post-administration” value ([1]; 10 μM)?
A: The value was 0.0590 ± 0.0269^a.

Q: What about the “APD90, Change rate (%)” value ([1]; 10 μM) of the same molecule?
A: The value was 68.91% ± 33.59%^b.

Q: What about the “APD90, Post-administration” value ([1]; 10 μM) of the same molecule?
A: Its value is 0.0862 ± 0.0275^a.

Q: And the “APD, Post-administration” value ([1]; 10 μM)?
A: Its value is 0.1028 ± 0.0258^a.

Q: And the “APD50, Pre-administration” value ([1]; 10 μM group, baseline)?
A: The value was 0.0313 ± 0.0131.

Q: And the “APD90, Pre-administration” value ([1]; 10 μM group, baseline)?
A: The value was 0.0524 ± 0.0175.

Q: And the “Incidence (%) of atrial fibrillation” value (guinea pig heart)?
A: The value was 17%.

Q: What about the “Number of animals developing atrial fibrillation” value (guinea pig heart) of the same molecule?
A: Its value is 1.

Q: What about the “Death (%)” value (SD rats [2]; 3 mg/kg) of the same molecule?
A: Its value is 13%.

Q: And the Death n (SD rats [2]; 3 mg/kg)?
A: The Death n was 1.

Q: And the “Ventricular fibrillation (%)” value (SD rats [2]; 3 mg/kg)?
A: Its value is 38%.

Q: And the Ventricular fibrillation n (SD rats [2]; 3 mg/kg)?
A: Its Ventricular fibrillation n is 3.

Q: What about the “Ventricular premature beat (%)” value (SD rats [2]; 3 mg/kg) of the same molecule?
A: Its value is 100%.

Q: What about the “Ventricular premature beat n” value (SD rats [2]; 3 mg/kg) of the same molecule?
A: The value was 8.

Q: And the “Ventricular tachycardia (%)” value (SD rats [2]; 3 mg/kg)?
A: Its value is 87%.

Q: And the Ventricular tachycardia n (SD rats [2]; 3 mg/kg)?
A: The Ventricular tachycardia n was 7.

Q: Which results are given for `CN[C@@H](C)[C@H]1[C@H](O)C[C@@]2(C)[C@@H]3CC[C@H]4C(C)(C)[C@@H](NC)CC[C@@]45C[C@@]35CC[C@]12C` [Cyclovirobuxine D, reference compound]?
A: Incidence (%) of atrial fibrillation (guinea pig heart): 83%; Number of animals developing atrial fibrillation (guinea pig heart): 5; Death (%) (SD rats [2]; 1 mg/kg): 50%; Death n (SD rats [2]; 1 mg/kg): 3; Ventricular fibrillation (%) (SD rats [2]; 1 mg/kg): 83%; Ventricular fibrillation n (SD rats [2]; 1 mg/kg): 5; Ventricular premature beat (%) (SD rats [2]; 1 mg/kg): 100%; Ventricular premature beat n (SD rats [2]; 1 mg/kg): 6; Ventricular tachycardia (%) (SD rats [2]; 1 mg/kg): 100%; Ventricular tachycardia n (SD rats [2]; 1 mg/kg): 6; Maximum tolerance dose (MTD) (SD rats [3]): 5 mg/kg; Maximum tolerance dose (MTD) (KM mice): 400 mg/kg; AUCt ([4]; intragastrical administration): 110.6 ng·h/mL; Cmax ([4]; intragastrical administration): 16.30 ng/mL; F ([4]; intragastrical administration): 36%; T1/2 ([4]; intragastrical administration): 18.85 h; Tmax ([4]; intragastrical administration): 2.75 h; AUCt ([4]; intravenous injection): 310.0 ng·h/mL; Cmax ([4]; intravenous injection): 146.2 ng/mL; T1/2 ([4]; intravenous injection): 8.54 h; Tmax ([4]; intravenous injection): 0.25 h; AUCt [5]: 274.3 ng·h/mL; Cmax [5]: 19.09 ng/mL; T1/2 [5]: 15.90 h; Tmax [5]: 3.55 h; Effect on APD of the action potential (in words) ([6]; 0.024 μM): can prolong the APD; Spontaneous activity frequency of cardiomyocytes (in words) ([6]; 0.012-0.036 μM): slow down or even disappear
